# Laboratory results: patent publication US12157730B2, “Heteroaryl derivative, method for producing same, and pharmaceutical composition comprising same as effective component” (VORONOI INC., priority 2019, dated 2024)
# Molecular target: T1, Ba/F3 cell EGFR Exon20 ins NPH (Homo sapiens, UniProt P00533, INS773NPH)
# T1 construct: expressed in transfected cells; host or cells: Ba/F3
# Test: Ba/F3 cell proliferation suppression, EGFR Exon20 ins NPH
# Assay type: cell-based
# Conditions: GI50 class; Ba/F3 cell line with NPH inserted at Exon20 of EGFR; 72 hours
# Procedure, shortened: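 Cells were seeded 24 h before dosing and then treated for 72 hours with compound at final concentrations of 0.3 nM to 50 um. Live cells were measured by CellTiter-Glo luminescence, and GI50 values were derived from growth ratio relative to control across three repeats.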
row,Ba/F3 (NPH) Activity,Compound
1,A (GI50 < 50 nM),"C=CC(=O)Nc1cc(Nc2cc(N3OCC[C@@H]3c3ccc(Cl)cc3F)ncn2)c(OC)cc1N1CCN(CC)CC1 [compound 401, N-(5-((6-((R)-3-(4-chloro-2-fluorophenyl)isoxazolidine-2-yl)pyrimidine-4-yl)amino)-2-(4-ethylpiperazine-1-yl)-4-methoxyphenyl) acrylamide]"
2,A (GI50 < 50 nM),"C=CC(=O)Nc1cc(Nc2cc(N3OCC[C@@H]3c3cccc(Cl)c3Cl)ncn2)c(OC)cc1N1CCN(CC2CC2)CC1 [compound 567, N-(2-(4-(cyclopropylmethyl)piperazine-1-yl)-5-((6-((R)-3-(2,3-dichlorophenyl)isoxazolidine-2-yl)pyrimidine-4-yl)amino)-4-methoxyphenyl) acrylamide]"
3,A (GI50 < 50 nM),"C=CC(=O)Nc1cc(Nc2cc(N3OCC[C@@H]3c3cccc(C)c3F)ncn2)c(OC)cc1N1CCN(CC)CC1 [compound 847, N-(2-(4-ethylpiperazine-1-yl)-5-((6-((R)-3-(2-fluoro-3-methylphenyl)isoxazolidine-2-yl)pyrimidine-4-yl)amino)-4-methoxyphenyl) acrylamide]"
4,A (GI50 < 50 nM),"C=CC(=O)Nc1cc(Nc2cc(N3OCC[C@@H]3c3ccc(Cl)c(Cl)c3)ncn2)c(OC)cc1N1CCN(CC)CC1 [compound 672, N-(5-((6-((R)-3-(3,4-dichlorophenyl)isoxazolidine-2-yl)pyrimidine-4-yl)amino)-2-(4-ethylpiperazine-1-yl)-4-methoxyphenyl) acrylamide]"
5,A (GI50 < 50 nM),"C=CC(=O)Nc1cc(Nc2cc(N3OCC[C@@H]3Cc3ccccc3)ncn2)c(OC)cc1N1CCN(C)CC1 [compound 945, N-(5-((6-((S)-3-benzylisoxazolidine-2-yl)pyrimidine-4-yl)amino)-4-methoxy-2-(4-methylpiperazine-1-yl)phenyl)acrylamide]"
6,A (GI50 < 50 nM),"C=CC(=O)Nc1cc(Nc2cc(N3OCC[C@@H]3c3cc(F)ccc3F)ncn2)c(OC)cc1N1CCN(CC)CC1 [compound 849, N-(5-((6-((R)-3-(2,5-difluorophenyl)isoxazolidine-2-yl)pyrimidine-4-yl)amino)-2-(4-ethylpiperazine-1-yl)-4-methoxyphenyl) acrylamide]"
7,A (GI50 < 50 nM),"C=CC(=O)Nc1cc(Nc2cc(N3OCC[C@@H]3c3ccc(Cl)c(F)c3)ncn2)c(OC)cc1N1CCC(N2CCN(C(C)=O)CC2)CC1 [compound 796, N-(2-(4-(4-acetylpiperazine-1-yl)piperidine-1-yl)-5-((6-((R)-3-(4-chloro-3-fluorophenyl)isoxazolidine-2-yl)pyrimidine-4-yl)amino)-4-methoxyphenyl) acrylamide]"
8,C (500 nM ≤ GI50 < 5000 nM),"C=CC(=O)Nc1cc(Nc2cc(N3OCC[C@@H]3c3ccc(C)nc3)ncn2)c(OC)cc1N1CCN(C(C)=O)CC1 [Example 49, N-(2-(4-acetylpiperazine-1-yl)-4-methoxy-5-((6-((R)-3-(6-methylpyridine-3-yl)isoxazolidine-2-yl)pyrimidine-4-yl)amino)phenyl) acrylamide]"
9,A (GI50 < 50 nM),"C=CC(=O)Nc1cc(Nc2cc(N3OCC[C@@H]3c3cc(F)cc(F)c3)ncn2)c(OC)cc1N1CCN(C2CC2)CC1 [compound 438, N-(2-(4-cyclopropylpiperazine-1-yl)-5-((6-((R)-3-(3,5-difluorophenyl)isoxazolidine-2-yl)pyrimidine-4-yl)amino)-4-methoxyphenyl) acrylamide]"

# More lines, now with the values behind:
row,Compound,Ba/F3 (NPH) Activity
1,"C=CC(=O)Nc1cc(Nc2cc(N3OCC[C@@H]3c3cccc(C)c3F)ncn2)c(OC)cc1N1CCC(N2CCC(N(C)C)CC2)CC1 [compound 420, N-(2-(4-(dimethylamino)-[1,4'-bipiperidine]-1'-yl)-5-((6-((R)-3-(2-fluoro-3-methylphenyl)isoxazolidine-2-yl)pyrimidine-4-yl)amino)-4-methoxyphenyl) acrylamide]",A (GI50 < 50 nM)
2,"C=CC(=O)Nc1cc(Nc2cc(N3OCC[C@@H]3c3ccc(C)nc3)ncn2)c(OC)cc1N1CCC(N2CCC(N3CCOCC3)CC2)CC1 [Example 235, N-(4-methoxy-5-((6-((R)-3-(6-methylpyridine-3-yl)isoxazolidine-2-yl)pyrimidine-4-yl)amino)-2-(4-morpholino-[1,4'-bipiperidine]-1'-yl)phenyl)acrylamide]",B (50 nM ≤ GI50 < 500 nM)
3,"C=CC(=O)Nc1cc(Nc2cc(N3OCC[C@@H]3c3ccc(C)nc3)ncn2)c(OC)cc1N1C[C@H]2C[C@@H]1CO2 [Example 224, N-(2-((1R,4R)-2-oxa-5-azabicyclo[2.2.1]heptane-5-yl)-4-methoxy-5-((6-((R)-3-(6-methylpyridine-3-yl)isoxazolidine-2-yl)pyrimidine-4-yl)amino)phenyl)acrylamide]",C (500 nM ≤ GI50 < 5000 nM)
4,"C=CC(=O)Nc1cc(Nc2cc(N3OCC[C@@H]3Cc3cccc(Cl)c3C)ncn2)c(OC)cc1N1CCC(N2CCN(C3CC3)[C@H](C)C2)CC1 [compound 1027, N-(5-((6-((S)-3-(3-chloro-2-methylbenzyl)isoxazolidine-2-yl)pyrimidine-4-yl)amino)-2-(4-((R)-4-cyclopropyl-3-methylpiperazine-1-yl)piperidine-1-yl)-4-methoxyphenyl) acrylamide]",A (GI50 < 50 nM)
5,"C=CC(=O)Nc1cc(Nc2cc(N3OCC[C@@H]3Cc3cccc(N(C)C)c3)ncn2)c(OC)cc1N1CCC(N2CCN(C3CC3)[C@@H](C)C2)CC1 [compound 1045, N-(2-(4-((S)-4-cyclopropyl-3-methylpiperazine-1-yl)piperidine-1-yl)-5-((6-((S)-3-(3-(dimethylamino)benzyl)isoxazolidine-2-yl)pyrimidine-4-yl)amino)-4-methoxyphenyl) acrylamide]",B (50 nM ≤ GI50 < 500 nM)
6,"C=CC(=O)Nc1cc(Nc2cc(N3OCC[C@@H]3c3c(F)ccc(F)c3F)ncn2)c(OC)cc1N1CCC(N2CCN(C(C)C)CC2)CC1 [compound 643, N-(2-(4-(4-isopropylpiperazine-1-yl)piperidine-1-yl)-4-methoxy-5-((6-((R)-3-(2,3,6-trifluorophenyl)isoxazolidine-2-yl)pyrimidine-4-yl)amino)phenyl)acrylamide]",A (GI50 < 50 nM)
7,"C#Cc1cccc([C@H]2CCON2c2cc(Nc3cc(NC(=O)C=C)c(N(C)CCN(C)C)cc3OC)ncn2)c1 [compound 616, N-(2-((2-(dimethylamino)ethyl) (methyl)amino)-5-((6-((R)-3-(3-ethynylphenyl)isoxazolidine-2-yl)pyrimidine-4-yl)amino)-4-methoxyphenyl) acrylamide]",A (GI50 < 50 nM)
8,"C=CC(=O)Nc1cc(Nc2cc(N3OCC[C@@H]3c3c(F)cccc3F)ncn2)c(OC)cc1N1CCC(N2CCN(C3CC3)[C@H](C)C2)CC1 [Example 137, N-(2-(4-((R)-4-cyclopropyl-3-methylpiperazine-1-yl)piperidine-1-yl)-5-((6-((R)-3-(2,6-difluorophenyl)isoxazolidine-2-yl)pyrimidine-4-yl)amino)-4-methoxyphenyl) acrylamide]",B (50 nM ≤ GI50 < 500 nM)
9,"C=CC(=O)Nc1cc(Nc2cc(N3OCC[C@@H]3Cc3cccc(F)c3C)ncn2)c(OC)cc1N(C)CCN(C)C [compound 1000, N-(2-((2-(dimethylamino)ethyl) (methyl)amino)-5-((6-((S)-3-(3-fluoro-2-methylbenzyl)isoxazolidine-2-yl)pyrimidine-4-yl)amino)-4-methoxyphenyl) acrylamide]",A (GI50 < 50 nM)
